Experimental data reported in PMC10019194, “Killing Two Birds with One Stone: Discovery of Dual Inhibitors of Oxygen and Fumarate Respiration in Zoonotic Parasite, Echinococcus multilocularis” (Antimicrobial Agents and Chemotherapy, 2023).
Read-outs that look alike come from different tables or passages of the source.

What was measured:
A. suum complex II = molecular target: T1, A. suum complex II (Ascaris suum, UniProt O44074+P92506+P92507); assay: Complex II activity of A. suum mitochondrial fraction; format: biochemical
T1 construct: from tissue; host or cells: A. suum mitochondrial fraction
T1 sequence (O44074 22-282): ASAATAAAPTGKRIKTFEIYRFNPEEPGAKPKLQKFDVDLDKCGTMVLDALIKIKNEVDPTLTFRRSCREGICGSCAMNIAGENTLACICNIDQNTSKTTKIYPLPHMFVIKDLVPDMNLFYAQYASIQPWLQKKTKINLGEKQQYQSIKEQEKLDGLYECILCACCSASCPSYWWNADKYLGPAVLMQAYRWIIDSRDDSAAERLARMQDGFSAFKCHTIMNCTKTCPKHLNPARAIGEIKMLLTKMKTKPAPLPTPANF
T1 sequence (P92506 32-188): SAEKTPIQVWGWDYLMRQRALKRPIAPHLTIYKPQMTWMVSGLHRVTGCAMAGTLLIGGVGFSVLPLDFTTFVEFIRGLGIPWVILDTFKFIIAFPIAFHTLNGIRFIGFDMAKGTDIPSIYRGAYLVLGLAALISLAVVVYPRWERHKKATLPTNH
T1 sequence (P92507 26-156): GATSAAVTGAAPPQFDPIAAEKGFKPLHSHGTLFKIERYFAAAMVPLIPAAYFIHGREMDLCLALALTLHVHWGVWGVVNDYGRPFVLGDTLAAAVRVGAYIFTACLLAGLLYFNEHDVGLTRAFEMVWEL
T1 sequence (Q33862 19-645 partner): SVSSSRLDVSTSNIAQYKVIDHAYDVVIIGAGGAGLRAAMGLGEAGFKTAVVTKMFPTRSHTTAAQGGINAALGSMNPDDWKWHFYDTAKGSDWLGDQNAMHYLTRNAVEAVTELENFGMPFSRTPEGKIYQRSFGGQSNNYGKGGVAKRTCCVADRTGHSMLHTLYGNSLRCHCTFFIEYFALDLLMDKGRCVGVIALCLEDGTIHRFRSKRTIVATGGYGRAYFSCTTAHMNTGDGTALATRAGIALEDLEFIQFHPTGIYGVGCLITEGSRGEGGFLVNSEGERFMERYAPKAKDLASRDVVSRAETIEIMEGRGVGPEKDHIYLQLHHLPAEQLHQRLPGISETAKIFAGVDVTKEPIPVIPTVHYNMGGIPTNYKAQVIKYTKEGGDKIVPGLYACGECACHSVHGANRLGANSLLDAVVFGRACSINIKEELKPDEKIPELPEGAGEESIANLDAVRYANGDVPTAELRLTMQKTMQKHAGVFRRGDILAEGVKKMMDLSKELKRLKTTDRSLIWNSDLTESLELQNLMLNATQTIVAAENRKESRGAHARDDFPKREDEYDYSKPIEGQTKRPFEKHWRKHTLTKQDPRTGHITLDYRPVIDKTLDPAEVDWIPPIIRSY
Text: Cyst tissues containing E. multilocularis (Nemuro strain) protoscoleces isolated from infected hispid cotton rats, Sigmodon hispidus, were used. The tissues were shredded through a metal mesh (0.5 mm diameter). Then, the tissues were repeatedly suspended and washed with physiological saline in a tall beaker to obtain protoscoleces by exploiting the buoyancy difference between protoscoleces and other tissue ([26]). The obtained protoscoleces were homogenized with a motor-driven homogenizer to prepare the mitochondrial fraction. The homogenate was diluted with mitochondrial preparation buffer (210 mM mannitol, 10 mM sucrose, 1 mM disodium EDTA, and 50 mM Tris-HCl [pH 7.5]) supplemented with 10 mM sodium malonate to 5 times the volume of the original protoscolex homogenate, and then centrifuged at 800 × g for 10 min (4°C) to remove cell debris and nuclei. The supernatant was then centrifuged at 8,000 × g for 10 min (4°C) to obtain the mitochondrial pellet. […]
NADH:quinone reductase activity (complex I), succinate:quinone reductase activity (complex II), and succinate:cytochrome c reductase activity (complexes II to III) were measured using a UV-3000 spectrophotometer (Shimadzu, Kyoto, Japan) as described previously ([4], [6]). […] NADH:quinone reductase activity was measured in 50 mM potassium phosphate buffer (pH 7.4) containing 2 mM potassium cyanide, KCN (Sigma, St. Louis, MO, USA), and 60 μM decylubiquinone (Sigma). The activity assay was started by the addition of 50 μM NADH (Fujifilm-Wako, Tokyo, Japan) and recorded as the rate of NADH consumption as monitored at 340 nm (ε = 6.2 mM^−1 cm^−1). […] SQR activity was determined by monitoring the change in absorbance of quinone at 278 nm (ε = 15 mM^−1 cm^−1) in the presence of 60 μM decylubiquinone, 2 mM KCN, and the inhibitor. […] NADH:cytochrome c activity (complex I to III) was measured in the reaction buffer (30 mM potassium phosphate, 1 mM MgCl2, pH 7.5) containing 2 mM KCN, 50 μM cytochrome c (Nacalai Tesque, Kyoto, Japan), and the inhibitor. […]

[1] = molecular target: complex II (succinate:quinone reductase, SQR) (Echinococcus multilocularis, UniProt A0A1Z4EAW8+A0A1Z4EAX0+A0A1Z4EAX1); assay: Succinate:quinone reductase (SQR) activity (complex II) in protoscoleces mitochondrial fraction; format: biochemical
complex II (succinate:quinone reductase, SQR), sequence (A0A1Z4EAV8 entry or part of it): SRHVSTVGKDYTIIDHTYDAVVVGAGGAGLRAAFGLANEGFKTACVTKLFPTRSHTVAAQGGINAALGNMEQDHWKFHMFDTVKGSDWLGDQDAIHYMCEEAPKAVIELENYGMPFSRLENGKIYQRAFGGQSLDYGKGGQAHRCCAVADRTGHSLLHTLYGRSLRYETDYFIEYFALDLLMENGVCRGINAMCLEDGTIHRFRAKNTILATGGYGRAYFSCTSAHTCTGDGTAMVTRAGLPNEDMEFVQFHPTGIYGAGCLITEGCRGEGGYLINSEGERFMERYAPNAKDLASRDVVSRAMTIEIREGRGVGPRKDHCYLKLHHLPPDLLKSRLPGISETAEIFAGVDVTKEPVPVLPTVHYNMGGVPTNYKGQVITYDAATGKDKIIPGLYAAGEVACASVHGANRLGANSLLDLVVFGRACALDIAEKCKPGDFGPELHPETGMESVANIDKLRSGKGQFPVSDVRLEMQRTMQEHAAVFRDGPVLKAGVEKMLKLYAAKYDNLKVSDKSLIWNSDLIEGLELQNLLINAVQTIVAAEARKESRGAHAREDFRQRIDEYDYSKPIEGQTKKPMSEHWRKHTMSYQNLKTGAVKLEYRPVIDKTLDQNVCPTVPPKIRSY
complex II (succinate:quinone reductase, SQR), sequence (A0A1Z4EAX1 entry or part of it): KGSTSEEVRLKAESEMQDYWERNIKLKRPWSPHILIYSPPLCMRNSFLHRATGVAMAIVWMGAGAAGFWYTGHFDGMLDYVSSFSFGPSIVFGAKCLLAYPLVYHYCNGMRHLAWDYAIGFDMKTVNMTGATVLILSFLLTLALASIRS
complex II (succinate:quinone reductase, SQR), sequence (A0A1Z4EAX0 entry or part of it): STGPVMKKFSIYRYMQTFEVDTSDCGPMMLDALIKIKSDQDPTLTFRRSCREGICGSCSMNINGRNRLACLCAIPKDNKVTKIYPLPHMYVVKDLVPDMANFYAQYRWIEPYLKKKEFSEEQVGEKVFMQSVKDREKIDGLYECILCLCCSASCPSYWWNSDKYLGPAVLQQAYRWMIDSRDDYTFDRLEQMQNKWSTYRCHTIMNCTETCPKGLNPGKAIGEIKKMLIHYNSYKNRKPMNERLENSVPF
complex II (succinate:quinone reductase, SQR), sequence (A0A1Z4EAW8 entry or part of it): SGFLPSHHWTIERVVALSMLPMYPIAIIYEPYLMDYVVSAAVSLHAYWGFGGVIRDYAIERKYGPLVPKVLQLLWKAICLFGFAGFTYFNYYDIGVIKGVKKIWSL
Text: (§1) Cyst tissues containing E. multilocularis (Nemuro strain) protoscoleces isolated from infected hispid cotton rats, Sigmodon hispidus, were used. The tissues were shredded through a metal mesh (0.5 mm diameter). Then, the tissues were repeatedly suspended and washed with physiological saline in a tall beaker to obtain protoscoleces by exploiting the buoyancy difference between protoscoleces and other tissue ([26]). The obtained protoscoleces were homogenized with a motor-driven homogenizer to prepare the mitochondrial fraction. The homogenate was diluted with mitochondrial preparation buffer (210 mM mannitol, 10 mM sucrose, 1 mM disodium EDTA, and 50 mM Tris-HCl [pH 7.5]) supplemented with 10 mM sodium malonate to 5 times the volume of the original protoscolex homogenate, and then centrifuged at 800 × g for 10 min (4°C) to remove cell debris and nuclei. The supernatant was then centrifuged at 8,000 × g for 10 min (4°C) to obtain the mitochondrial pellet. Next, the pellet was resuspended in mitochondrial preparation buffer (without malonate) and centrifuged at 8,000 × g for 10 min (4°C). The enriched mitochondrial fraction was finally suspended in approximately 0.5 to 1.0 mL of mitochondrial preparation buffer without malonate and frozen at −50°C. The mitochondrial fraction from A. suum was prepared essentially as described previously ([27], [28]).
(§2) NADH:quinone reductase activity (complex I), succinate:quinone reductase activity (complex II), and succinate:cytochrome c reductase activity (complexes II to III) were measured using a UV-3000 spectrophotometer (Shimadzu, Kyoto, Japan) as described previously ([4], [6]). Briefly, all enzyme assays using mitochondrial fractions were performed in 0.5- or 1.0-mL reaction mixtures at 25°C. A freeze/thaw process was performed before the assay to ensure that the mitochondrial membrane was permeable to the solutes. The final mitochondrial protein concentration was 50 μg/mL. NADH:quinone reductase activity was measured in 50 mM potassium phosphate buffer (pH 7.4) containing 2 mM potassium cyanide, KCN (Sigma, St. Louis, MO, USA), and 60 μM decylubiquinone (Sigma). The activity assay was started by the addition of 50 μM NADH (Fujifilm-Wako, Tokyo, Japan) and recorded as the rate of NADH consumption as monitored at 340 nm (ε = 6.2 mM^−1 cm^−1). The reagents used in the SQR activity assay were mixed with the reaction buffer containing 50 mM potassium phosphate (pH 7.4) and 0.1% (wt/vol) sucrose monolaurate (DOJINDO, Kumamoto, Japan). SQR activity was determined by monitoring the change in absorbance of quinone at 278 nm (ε = 15 mM^−1 cm^−1) in the presence of 60 μM decylubiquinone, 2 mM KCN, and the inhibitor. The reaction was initiated by the addition of 10 mM disodium succinate to the mixture. NADH:cytochrome c activity (complex I to III) was measured in the reaction buffer (30 mM potassium phosphate, 1 mM MgCl2, pH 7.5) containing 2 mM KCN, 50 μM cytochrome c (Nacalai Tesque, Kyoto, Japan), and the inhibitor. The assay was performed after the addition of 100 mM malonate to block complex II activity. The reaction was started by adding 50 μM NADH to the mixture, and the enzyme activity was determined by monitoring the change in absorbance of cytochrome c at 550 nm (ε = 19 mM^−1 cm^−1). IC50 values of AF and its derivatives against the specific activities of mitochondrial respiratory enzymes in protoscoleces were determined. The IC50 of each compound was determined by calculating approximation lines from three or more points on either side of the IC50 concentration.

[2] = molecular target: succinate-cytochrome c reductase (complexes II to III) (Echinococcus multilocularis, UniProt Q9TE80); assay: Succinate:cytochrome c reductase activity (complexes II to III); format: biochemical; settings: read-out: IC50 against succinate-cytochrome c reductase
Method: NADH:quinone reductase activity (complex I), succinate:quinone reductase activity (complex II), and succinate:cytochrome c reductase activity (complexes II to III) were measured using a UV-3000 spectrophotometer (Shimadzu, Kyoto, Japan) as described previously ([4], [6]). Briefly, all enzyme assays using mitochondrial fractions were performed in 0.5- or 1.0-mL reaction mixtures at 25°C. A freeze/thaw process was performed before the assay to ensure that the mitochondrial membrane was permeable to the solutes. The final mitochondrial protein concentration was 50 μg/mL. NADH:quinone reductase activity was measured in 50 mM potassium phosphate buffer (pH 7.4) containing 2 mM potassium cyanide, KCN (Sigma, St. Louis, MO, USA), and 60 μM decylubiquinone (Sigma). The activity assay was started by the addition of 50 μM NADH (Fujifilm-Wako, Tokyo, Japan) and recorded as the rate of NADH consumption as monitored at 340 nm (ε = 6.2 mM^−1 cm^−1). […] SQR activity was determined by monitoring the change in absorbance of quinone at 278 nm (ε = 15 mM^−1 cm^−1) in the presence of 60 μM decylubiquinone, 2 mM KCN, and the inhibitor. […] NADH:cytochrome c activity (complex I to III) was measured in the reaction buffer (30 mM potassium phosphate, 1 mM MgCl2, pH 7.5) containing 2 mM KCN, 50 μM cytochrome c (Nacalai Tesque, Kyoto, Japan), and the inhibitor. […]

[3] = molecular target: complex I and III (NADH:cytochrome c reductase) (Echinococcus multilocularis, UniProt Q9TE80); assay: NADH:cytochrome c reductase activity (complex I to III) in protoscoleces mitochondrial fraction; format: biochemical; settings: E. multilocularis protoscoleces mitochondria; mean ± SEM; Table 1; read-out: IC50 NADH:cytochrome c reductase (complex I and III)
complex I and III (NADH:cytochrome c reductase), sequence (Q9TE80 entry or part of it): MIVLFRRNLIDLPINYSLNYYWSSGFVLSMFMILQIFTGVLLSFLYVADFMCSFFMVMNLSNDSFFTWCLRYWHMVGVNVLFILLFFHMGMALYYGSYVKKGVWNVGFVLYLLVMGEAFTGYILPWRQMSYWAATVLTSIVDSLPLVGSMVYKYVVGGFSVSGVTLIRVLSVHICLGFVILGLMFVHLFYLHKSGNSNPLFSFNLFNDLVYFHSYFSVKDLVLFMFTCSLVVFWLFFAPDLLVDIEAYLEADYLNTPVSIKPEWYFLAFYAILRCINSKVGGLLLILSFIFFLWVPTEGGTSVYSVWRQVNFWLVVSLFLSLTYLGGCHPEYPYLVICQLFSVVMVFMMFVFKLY
complex I and III (NADH:cytochrome c reductase), sequence (Q9GP40 whole entry, further chain): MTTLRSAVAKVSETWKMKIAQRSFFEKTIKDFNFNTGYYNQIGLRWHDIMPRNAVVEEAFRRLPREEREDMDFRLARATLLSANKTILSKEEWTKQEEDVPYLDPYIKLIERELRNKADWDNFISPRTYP
complex I and III (NADH:cytochrome c reductase), sequence (Q9TE76 entry or part of it, further chain): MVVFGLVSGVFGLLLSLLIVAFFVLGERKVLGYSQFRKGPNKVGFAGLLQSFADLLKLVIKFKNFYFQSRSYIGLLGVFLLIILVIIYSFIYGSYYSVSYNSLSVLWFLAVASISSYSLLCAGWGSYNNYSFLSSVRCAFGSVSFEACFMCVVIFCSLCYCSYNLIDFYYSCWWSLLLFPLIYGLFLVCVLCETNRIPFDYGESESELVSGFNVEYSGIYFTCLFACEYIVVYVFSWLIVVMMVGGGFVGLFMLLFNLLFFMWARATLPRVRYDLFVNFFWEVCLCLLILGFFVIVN
Text: as §1, §2

[4] = molecular target: complex I (NADH:quinone reductase) (Echinococcus multilocularis, UniProt A0A068Y553+A0A068Y9L9+Q9TE76); assay: NADH:quinone reductase activity (complex I) in protoscoleces mitochondrial fraction; format: biochemical; settings: E. multilocularis protoscoleces mitochondria; read-out: IC50 NADH:decyl rhodoquinone reductase (complex I)
Text: as §1
as §2, with “Louis, MO, USA), and 60 μM decylubiquinone (Sigma).” left out, “SQR activity was determined by monitoring the change in absorbance of quinone at 278 nm (ε = 15 mM^−1 cm^−1) in the presence of 60 μM decylubiquinone, 2 mM KCN, and the inhibitor.” left out

[5] = tested on: E. multilocularis protoscoleces; assay: Ex vivo culture assay of live protoscoleces, viability by trypan blue exclusion; format: cell-based, Echinococcus multilocularis; settings: 50 μM
Method: FIG 5 Viability of E. multilocularis protoscoleces in ex vivo culture assay. The E. multilocularis protoscoleces were treated with ascofuranone (AF) and its derivatives in culture under aerobic and anaerobic conditions (O2 <0.3%). Each compound was added to the culture medium at a final concentration of 50 μM. The control group was supplemented with 0.5% (vol/vol) dimethyl sulfoxide (DMSO). Atovaquone (ATV) was used as positive control and to ensure anaerobic conditions in the culture. The viability of protoscoleces was evaluated by their ability to exclude trypan blue. The data are presented as the mean ± standard deviation (n = 3).
The obtained protoscoleces were cultured in Connaught Medical Research Laboratories 1066 medium (Gibco, Grand Island, NY, USA) containing 0.5% (wt/vol) yeast extract (Difco Laboratories, Detroit, MI, USA), 2 mM L-glutamine (Gibco), 23 mM 4-(2-hydroxyethyl)-1-piperazineethanesulfonic acid, 0.5% (wt/vol) D (+)-glucose, 0.4 mM sodium taurocholate (Wako Pure Chemical Industries, Osaka, Japan), 57 mM sodium hydrogen carbonate, and 100 U/mL penicillin-streptomycin (Gibco). The protoscoleces were observed daily for seven consecutive days, and half of the medium was replaced on day 3. For anaerobic cultures, six-well plates were sealed in plastic containers with oxygen-detecting agents and oxygen scavengers (Aneromeito, Nissui Pharmaceutical, Tokyo, Japan) to keep the oxygen concentration below 0.3% at 37°C. The protoscoleces were treated with AF and its derivatives at a final concentration of 50 μM in the culture medium, and the duration of parasite elimination was investigated. The control group was supplemented with 0.5% (vol/vol) dimethyl sulfoxide (DMSO), and all conditions were assayed in triplicate. We used ATV in a culture assay as positive control and to ensure anaerobic conditions in the culture ([4], [5]). […] The viability of protoscoleces was determined after microscopic observation of more than 170 protoscoleces per well using the trypan blue exclusion test, as described previously ([4], [6], [33]).

CC(C)(C)c1ccc(CNC(=O)c2ccccc2C(F)(F)F)cc1 [NN23, reference compound]
IC50 (A. suum complex II; A. suum mitochondrial fraction, read-out: IC50 against A. suum complex II): 5 nM
IC50 ([1]; figure legends, supplement, read-out: IC50 against E. multilocularis complex II (SQR)): > 20000 nM

O=C1C(O)=C([C@H]2CC[C@H](c3ccc(Cl)cc3)CC2)C(=O)c2ccccc21 [ATV, Atovaquone, reference compound]
IC50 ([1]; IC50 against E. multilocularis complex II (SQR), figure legends, supplement): 690 nM
IC50 [2]: 2 nM

CC(=O)c1cc(Cl)c(O)c(C/C=C(\C)CCC=C(C)C)c1O [Compound D5]
IC50 [3]: 221 ± 44 nM
IC50 (A. suum complex II): 11000 nM
fold less potent inhibition of A. suum complex II than of E. multilocularis complex II (A. suum complex II; ratio of IC50 A. suum / E. multilocularis): 234 fold
IC50 ([1]; IC50, inhibition of E. multilocularis SQR, Table 2, substitutions on the benzene group, mean ± SEM): 47 ± 11 nM
IC50 ([1]; IC50 Succinate:quinone reductase (SQR) (complex II), E. multilocularis protoscoleces mitochondria, mean ± SEM, Table 1): 47 ± 11 nM
IC50 [4]: > 50000 nM
day of complete elimination of protoscoleces ([5]; aerobic culture): ≤ 6 days
day of complete elimination of protoscoleces ([5]; anaerobic culture (O2 <0.3%)): ≤ 5 days
antiparasitic effect on protoscoleces in culture assay ([5]; both anaerobic and aerobic conditions): strong antiparasitic effect
